Measured values reported in the supplement of paper PMC10307832.

Experiments:
Experiment in all cases: relative viability (nuclei count vs DMSO), 5 days (fraction); higher = more cells survive
GSK126 + OSI-027 = compound: CC[C@H](C)N1C=C(C2=C(C=C(C=C21)C3=CN=C(C=C3)N4CCNCC4)C(=O)NCC5=C(C=C(NC5=O)C)C)C [GSK126] + COc1cccc2cc(-c3nc([C@H]4CC[C@H](C(=O)O)CC4)n4ncnc(N)c34)[nH]c12 [OSI-027] (partner 0.5 µM)
In short: (§1)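 Five library-drug doses in √10 steps were combined with a fixed anchor-drug dose, or a single drug was given alone, by pin tool to lung cancer cell lines in 1536-well plates the day after seeding. Nuclei were stained and counted after 5 days. Relative viability is the nuclei count in treated wells over that in vehicle wells, taken as the median of duplicate plates.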

GSK126 + Pemetrexed = compound: CC[C@H](C)N1C=C(C2=C(C=C(C=C21)C3=CN=C(C=C3)N4CCNCC4)C(=O)NCC5=C(C=C(NC5=O)C)C)C [GSK126] + Nc1nc2[nH]cc(CCc3ccc(C(=O)N[C@@H](CCC(=O)O)C(=O)O)cc3)c2c(=O)[nH]1 [Pemetrexed] (partner 0.2 µM)
In short: as §1

MLN4924 + Foretinib = compound: NS(=O)(=O)OC[C@@H]1C[C@@H](n2ccc3c(N[C@H]4CCc5ccccc54)ncnc32)C[C@@H]1O [MLN4924] + COc1cc2c(Oc3ccc(NC(=O)C4(C(=O)Nc5ccc(F)cc5)CC4)cc3F)ccnc2cc1OCCCN1CCOCC1 [Foretinib] (partner 0.25 µM)
In short: as §1

MLN4924 + Phenformin = compound: NS(=O)(=O)OC[C@@H]1C[C@@H](n2ccc3c(N[C@H]4CCc5ccccc54)ncnc32)C[C@@H]1O [MLN4924] + N=C(N)NC(=N)NCCc1ccccc1 [Phenformin] (partner 250 µM)
In short: as §1

## UMC-11
GSK126 + OSI-027; first compound 0.08 µM
  relative viability: 0.563
GSK126 + OSI-027; first compound 0.253 µM
  relative viability: 0.522
GSK126 + OSI-027; first compound 0.8 µM
  relative viability: 0.484
GSK126 + OSI-027; first compound 2.53 µM
  relative viability: 0.44
GSK126 + OSI-027; first compound 8 µM
  relative viability: 0.43
GSK126 + Pemetrexed; first compound 0.08 µM
  relative viability: 0.841
GSK126 + Pemetrexed; first compound 0.253 µM
  relative viability: 0.749
GSK126 + Pemetrexed; first compound 0.8 µM
  relative viability: 0.756
GSK126 + Pemetrexed; first compound 2.53 µM
  relative viability: 0.744
GSK126 + Pemetrexed; first compound 8 µM
  relative viability: 0.831
MLN4924 + Foretinib; first compound 0.04 µM
  relative viability: 0.57
MLN4924 + Foretinib; first compound 0.1265 µM
  relative viability: 0.307
MLN4924 + Foretinib; first compound 0.4 µM
  relative viability: 0.298
MLN4924 + Foretinib; first compound 1.265 µM
  relative viability: 0.191
MLN4924 + Foretinib; first compound 4 µM
  relative viability: 0.173
MLN4924 + Phenformin; first compound 0.04 µM
  relative viability: 0.322
MLN4924 + Phenformin; first compound 0.1265 µM
  relative viability: 0.287
MLN4924 + Phenformin; first compound 0.4 µM
  relative viability: 0.266
MLN4924 + Phenformin; first compound 1.265 µM
  relative viability: 0.185
MLN4924 + Phenformin; first compound 4 µM
  relative viability: 0.189
